Test results taken from ChEMBL document CHEMBL1201862, “PubChem BioAssay data set” (2004).
Calls of active or inactive are those of the source.

Legend:
[1] = biological target: Paired box protein Pax-8 (Homo sapiens, UniProt Q06710); experiment: PAX8 transcriptional activity inhibition in RMG-I – RMG-I cells, luciferase, cherry-pick, dose response (AID 687027); type: functional, cell-based;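 also: luciferase reporter driven by Pax8 target thyroperoxidase promoter measured by SteadyGlo luminescence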
Sequence of Paired box protein Pax-8 (Q06710 whole entry): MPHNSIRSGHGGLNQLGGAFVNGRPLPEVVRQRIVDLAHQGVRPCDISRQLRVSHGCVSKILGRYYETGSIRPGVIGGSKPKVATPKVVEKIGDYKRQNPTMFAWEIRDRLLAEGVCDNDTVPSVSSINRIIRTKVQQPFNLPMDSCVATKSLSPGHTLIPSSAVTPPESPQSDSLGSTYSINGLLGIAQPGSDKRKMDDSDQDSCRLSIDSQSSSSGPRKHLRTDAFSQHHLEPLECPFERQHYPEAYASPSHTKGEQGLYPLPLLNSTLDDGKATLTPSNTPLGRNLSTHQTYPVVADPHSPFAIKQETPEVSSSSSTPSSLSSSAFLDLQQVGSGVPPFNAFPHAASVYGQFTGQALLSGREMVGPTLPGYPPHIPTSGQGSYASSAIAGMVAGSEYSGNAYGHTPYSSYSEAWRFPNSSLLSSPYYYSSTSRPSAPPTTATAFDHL

[2] = OVCAR-3 cell viability loss – plate reader, dry powder samples, PAX8 inhibitor project, dose response (AID 743044); type: functional, cell-based
[3] = OVCAR8 cell viability loss – plate reader, dry powder samples, PAX8 project, dose response (AID 743197); type: functional, cell-based; conditions: OVCAR-8
[4] = biological target: T1, RNA-binding protein pos-1 (Caenorhabditis elegans, UniProt G5EF15); experiment: disruptors of C. elegans POS-1 RNA interaction – biochemical, fluorescence polarization, dose response (AID 1964);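 also: purified POS-1 fused to maltose binding protein made in E. coli; potency of compounds blocking POS-1 binding to fluorescent RNA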
T1 sequence (G5EF15 whole entry): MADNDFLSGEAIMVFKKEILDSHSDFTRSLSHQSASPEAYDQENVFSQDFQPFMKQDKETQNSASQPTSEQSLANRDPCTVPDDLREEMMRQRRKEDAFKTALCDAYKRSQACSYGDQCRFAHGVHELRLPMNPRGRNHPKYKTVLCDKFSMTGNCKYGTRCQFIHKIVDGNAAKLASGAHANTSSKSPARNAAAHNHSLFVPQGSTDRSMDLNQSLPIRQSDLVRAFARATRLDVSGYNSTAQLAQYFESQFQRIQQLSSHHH

[5] = Luminescence Cell-Based Dose Confirmation HTS to Identify Activators of 5'UTR Stem-Loop Driven Alpha-Synuclein mRNA Translation in H4 Neuroglioblastoma Cells. [Related pubchem assays: 1829 (Project Summary), 1814 (Primary HTS)]; type: functional
[6] = Luminescence Cell-Based Dose Response HTS to Identify Activators of Luciferase Translation or Activity in H4 […] Cells. [Related pubchem assays: 1829 (Project Summary), 1814 (Primary HTS)]; type: functional
[7] = system: H4; experiment: Luminescence Cell-Based Dose Response HTS to Identify Activators of 5'UTR Stem-Loop Driven Prion Protein mRNA Translation in H4 Neuroglioblastoma Cells. [Related pubchem assays: 1829 (Project Summary), 1814 (Primary HTS)]; type: functional; conditions: Homo sapiens
[8] = biological target: T2, Zinc finger protein mex-5 (Caenorhabditis elegans, UniProt Q9XUB2); experiment: potency of MEX-5 RNA-binding blockers – biochemical, C. elegans, fluorescence polarization, dose response (AID 1960)
T2 sequence (Q9XUB2 whole entry): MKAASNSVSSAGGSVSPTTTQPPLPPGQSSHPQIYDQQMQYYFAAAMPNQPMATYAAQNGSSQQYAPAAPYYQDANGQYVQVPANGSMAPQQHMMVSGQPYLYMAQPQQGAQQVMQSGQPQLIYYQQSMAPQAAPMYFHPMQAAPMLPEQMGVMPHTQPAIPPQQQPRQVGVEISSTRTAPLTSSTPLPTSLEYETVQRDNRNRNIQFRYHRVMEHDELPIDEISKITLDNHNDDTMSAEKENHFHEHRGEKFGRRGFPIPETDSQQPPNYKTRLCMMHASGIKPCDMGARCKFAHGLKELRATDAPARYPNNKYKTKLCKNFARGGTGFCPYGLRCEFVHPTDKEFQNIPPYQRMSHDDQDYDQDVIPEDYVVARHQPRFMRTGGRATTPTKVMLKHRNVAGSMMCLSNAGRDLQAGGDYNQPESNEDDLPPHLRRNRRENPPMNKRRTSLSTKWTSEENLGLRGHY

[9] = biological target: Heat shock protein HSP 90-alpha (Homo sapiens, UniProt P07900); type: functional, organism-based
[10] = HEK-293T viability loss after treatment – luminescence, T-cell screen hits, cytotoxicity control for TCR NF-kB inhibitor project, dose response (AID 489026); type: functional, cell-based;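 also: cells exposed to compound about 14 hours before the viability readout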
[11] = biological target: T3, Hexokinase (Trypanosoma brucei, UniProt Q38C41); experiment: Confirmation assay for inhibitors of Trypanosoma brucei hexokinase 1-Analogue-first series. [Related pubchem assays (depositor defined):AID1430, AID1632, AID2516, AID2560, AID2579, AID2600, AID449725, AID492951]; type: functional
T3 sequence (Q38C41 whole entry): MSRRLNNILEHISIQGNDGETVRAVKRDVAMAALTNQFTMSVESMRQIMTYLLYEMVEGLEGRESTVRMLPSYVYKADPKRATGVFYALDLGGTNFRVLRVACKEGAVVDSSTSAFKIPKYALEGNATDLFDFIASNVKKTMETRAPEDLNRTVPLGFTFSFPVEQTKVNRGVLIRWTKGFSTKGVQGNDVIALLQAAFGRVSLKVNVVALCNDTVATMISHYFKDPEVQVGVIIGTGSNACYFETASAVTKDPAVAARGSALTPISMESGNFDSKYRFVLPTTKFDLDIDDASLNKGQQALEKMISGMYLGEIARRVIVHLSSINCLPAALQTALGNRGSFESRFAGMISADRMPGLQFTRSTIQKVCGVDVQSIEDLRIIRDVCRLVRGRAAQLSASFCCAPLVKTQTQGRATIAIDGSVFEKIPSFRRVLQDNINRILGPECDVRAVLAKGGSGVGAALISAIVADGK

[12] = system: BJ; experiment: BJ-TERT fibroblast viability loss – cell-based, RAS-independent, luminescence, dose response (AID 1933); type: functional; conditions: Homo sapiens
[13] = system: BJ; experiment: cells; type: functional, cell-based; conditions: Homo sapiens
[14] = system: BJ; experiment: BJ-TERT-LT-ST fibroblast viability loss – cell-based, RAS-independent, luminescence, dose response (AID 1935); type: functional; conditions: Homo sapiens;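 also: BJ fibroblasts immortalized with TERT plus LT and ST oncogenes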
[15] = DRD fibroblast viability loss – cell-based, non-viral oncogenic, luminescence, dose response (AID 1934); type: functional; conditions: Homo sapiens
[16] = biological target: T4, Microphthalmia-associated transcription factor (Homo sapiens, UniProt O75030); experiment: reducers of TRPM1 reporter luminescence, concentration series – cell-based, SK-MEL-5, cherry-picked, set 3, MITF inhibitor project, dose response (AID 493073); type: functional;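 also: SK-MEL-5 melanoma cells with luciferase driven by the MITF target TRPM1 promoter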
T4 sequence (O75030 whole entry): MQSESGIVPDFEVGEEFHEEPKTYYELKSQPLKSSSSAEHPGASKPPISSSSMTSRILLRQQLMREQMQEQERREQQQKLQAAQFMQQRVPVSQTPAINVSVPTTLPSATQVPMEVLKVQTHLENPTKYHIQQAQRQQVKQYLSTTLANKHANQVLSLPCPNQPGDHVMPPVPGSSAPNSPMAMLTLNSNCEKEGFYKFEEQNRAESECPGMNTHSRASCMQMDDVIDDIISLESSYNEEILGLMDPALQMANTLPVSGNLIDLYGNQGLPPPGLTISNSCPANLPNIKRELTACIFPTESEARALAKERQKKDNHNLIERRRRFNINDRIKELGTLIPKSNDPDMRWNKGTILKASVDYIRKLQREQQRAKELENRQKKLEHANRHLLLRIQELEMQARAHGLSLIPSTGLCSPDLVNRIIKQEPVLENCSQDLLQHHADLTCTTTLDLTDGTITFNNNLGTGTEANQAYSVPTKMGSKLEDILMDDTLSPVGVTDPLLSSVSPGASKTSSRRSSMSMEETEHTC

[17] = biological target: T5, Ubiquitin-conjugating enzyme E2 N (Homo sapiens, UniProt P61088); type: functional;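 also: Dose-response confirmation in a TR-FRET assay detecting UBC13-driven polyubiquitin chain formation, inhibition measured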
T5 sequence (P61088 whole entry): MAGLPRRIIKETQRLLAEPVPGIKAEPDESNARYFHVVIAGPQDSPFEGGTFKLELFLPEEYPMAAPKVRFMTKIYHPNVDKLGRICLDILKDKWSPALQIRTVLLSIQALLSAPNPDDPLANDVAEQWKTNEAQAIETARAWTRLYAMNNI

[18] = general cell-killing toxicity readout – plate reader, dry powder samples, cytotoxicity control for PAX8 inhibitor project, dose response (AID 743021); type: functional, cell-based

**Q.** For `C[C@H](CO)N1C[C@H](C)[C@H](CN(C)Cc2ccc(C(F)(F)F)cc2)OCCCC[C@H](C)Oc2ccc(NC(=O)CCC(F)(F)F)cc2C1=O`, which AC50 [1] is on record?
**A.** Its AC50 is 5.89 µM (active).

**Q.** And the AC50 [2]?
**A.** Its AC50 is 14.8 µM (active).

**Q.** What about the AC50 [3] of the same compound?
**A.** The AC50 was 63.8 µM (active).

**Q.** For `O=C(/C=C/N1CCOCC1)c1ccc(-c2ccccc2)cc1`, which EC50 [4] is on record?
**A.** The EC50 was > 300 µM (not active).

**Q.** And the EC50 [5]?
**A.** Its EC50 is 3.53 µM (active).

**Q.** What about the EC50 [6] of the same compound?
**A.** The EC50 was 36.8 µM (active).

**Q.** And the EC50 [7]?
**A.** Its EC50 is 57.7 µM (active).

**Q.** And the EC50 [8]?
**A.** Its EC50 is > 300 µM (not active).

**Q.** What about the AC50 [9] of the same compound?
**A.** Its AC50 is 1.68 µM (active).

**Q.** Which IC50 [10] does the source give for `O=C(Nc1ccc(S(=O)(=O)Nc2ccc(F)cc2)cc1)c1ccc(CN2CCOCC2)cc1` here?
**A.** Its IC50 is > 80 µM (inactive).

**Q.** With `O=C(Nc1cc(Cl)ccc1C(=O)O)c1ccncc1` as the compound, how does the IC50 [11] read?
**A.** The IC50 was > 25 µM (inactive).

**Q.** For `Clc1cccc(Cl)c1/C=N/Nc1c(Cl)cncc1Cl`, which EC50 [12] is on record?
**A.** Its EC50 is 13.7 µM (active).

**Q.** What about the EC50 [13] of the same compound?
**A.** The EC50 was > 150 µM (inconclusive).

**Q.** And the EC50 [14]?
**A.** The EC50 was 76.6 µM (active).

**Q.** And the EC50 [15]?
**A.** Its EC50 is 4.33 µM (active).

**Q.** And the IC50 [10]?
**A.** The IC50 was > 80 µM (inactive).

**Q.** For `COCCCn1nc2c3c(ccc2c1O)C(=O)c1ccccc1C3=O`, which AC50 [16] is on record?
**A.** Its AC50 is 8.86 µM (active).

**Q.** Which AC50 [1] does the source give for `C[C@H]1CCCCO[C@@H](CN(C)Cc2ccc3c(c2)OCO3)[C@@H](C)CN([C@@H](C)CO)C(=O)c2cc(NC(=O)Nc3ccc(F)cc3)ccc2O1` here?
**A.** Its AC50 is 22 µM (active).

**Q.** And the AC50 [2]?
**A.** Its AC50 is 31.2 µM (active).

**Q.** For `COc1ccccc1NC(=O)COC(=O)C12CC3CC(CC(Br)(C3)C1)C2`, which IC50 [17] is on record?
**A.** The IC50 was > 20 µM (inactive).

**Q.** Which AC50 [1] does the source give for `C[C@@H]1CN([C@@H](C)CO)S(=O)(=O)c2ccc(C#Cc3ccccc3F)cc2O[C@H]1CN(C)C(=O)Cc1ccccc1` here?
**A.** Its AC50 is 5.88 µM (active).

**Q.** And the AC50 [2]?
**A.** Its AC50 is 14.5 µM (active).

**Q.** And the AC50 [18]?
**A.** Its AC50 is 25.5 µM (active).

**Q.** What about the AC50 [3] of the same compound?
**A.** The AC50 was 37.6 µM (active).

**Q.** With `COc1ccccc1C(=O)Nc1cc(Cl)ccc1C(=O)O` as the compound, how does the IC50 [11] read?
**A.** Its IC50 is > 25 µM (inactive).

**Q.** Which IC50 [11] does the source give for `O=C(Nc1ccccc1)n1sc2ccccc2c1=O` here?
**A.** Its IC50 is > 25 µM (inactive).
